{"source": "patent US20250360185A1", "about": "“COMPOSITIONS COMPRISING PEDF-DERIVED SHORT PEPTIDES FOR THE TREATMENT OF DRY EYE DISEASES” (BRIM Biotechnology, Inc., priority 2022, published 2025)", "test_system": "subjects with DED", "test": "Visual analog scale (VAS) ocular symptom ratings, clinical study with CAE model", "type": "in vivo, human", "settings": "for VAS Burning/Stinging Change from Baseline, ANCOVA LS Mean Difference (SE), BRM421 OS − Placebo / VAS Burning/Stinging Change from Baseline, Two-Sample t-test Sample Mean Difference (SE), BRM421 OS − Placebo / VAS Eye Dryness Change from Baseline, ANCOVA LS Mean Difference (SE), BRM421 OS − Placebo / VAS Eye Dryness Change from Baseline, Two-Sample t-test Sample Mean Difference (SE), BRM421 OS − Placebo / VAS Photophobia Change from Baseline, ANCOVA LS Mean Difference (SE), BRM421 OS − Placebo / VAS Photophobia Change from Baseline, Two-Sample t-test Sample Mean Difference (SE), BRM421 OS − Placebo / VAS Burning/Stinging Change from Baseline, ANCOVA LS Mean (SE) / VAS Eye Dryness Change from Baseline, ANCOVA LS Mean (SE) / VAS Photophobia Change from Baseline, ANCOVA LS Mean (SE) / VAS Burning/Stinging Change from Baseline, Mean (SD) / VAS Eye Dryness Change from Baseline, Mean (SD) / VAS Photophobia Change from Baseline, Mean (SD): ITT; for VAS Burning/Stinging Change from Baseline, ANCOVA LS Mean (SE) / VAS Eye Dryness Change from Baseline, ANCOVA LS Mean (SE) / VAS Photophobia Change from Baseline, ANCOVA LS Mean (SE) / VAS Burning/Stinging Change from Baseline, Mean (SD) / VAS Eye Dryness Change from Baseline, Mean (SD) / VAS Photophobia Change from Baseline, Mean (SD): baseline last Pre-CAE measure; for VAS Burning/Stinging Change from Baseline, Mean (SD) / VAS Eye Dryness Change from Baseline, Mean (SD) / VAS Photophobia Change from Baseline, Mean (SD): 0-100 mm line", "method": "A multi-center, randomized, double masked, placebo controlled clinical study was conducted to assess the safety and efficacy of BRM421 ophthalmic solution (OS) in subjects with DED using a controlled adverse environment (CAE®) model (Ora, Inc., Andover, MA, USA). CAE® uses controlled ocular surface stress to exacerbate the signs and symptoms of DED in a safe and controllable manner.\nDuring the first visit (Day-7±1), the subjects were screened, evaluated before CAE®, exposed to CAE®, evaluated after CAE®, and started with the placebo run-in period (7±1 days). During the 7-day study run-in period (for the purpose of subject selection) prior to randomization, all subjects received Placebo OS bilaterally, three times daily (TID). During the second visit, subjects were evaluated before CAE®, exposed to CAE®, and evaluated after CAE®. These evaluations formed the baseline measurements. The subjects were then randomized into two groups to receive either BRM421 ophthalmic solution (OS) or Placebo OS (Vehicle) bilaterally three times daily (TID) for 14 days from Visit 2 to Visit 4.\nDuring these visits, subjects were evaluated for symptom efficacy. Specifically, visual analog scale (VAS) was measured by asking subjects to rate each ocular symptom due to ocular dryness. Symptoms assessed include burning/stinging, itching, foreign body sensation, blurred vision, eye dryness, photophobia, and pain.", "key": {"[1]": {"settings": "Visit 3, post-CAE evaluations as baselines"}}, "data": [{"sequence": "SLGAEQRTESIIHRALYYDLISSPDIHGT (listed as Homo sapiens) [BRM421, PEDF-derived short peptide, 29mer, residues 93-121; tested as BRM421 ophthalmic solution (OS)]", "values": [{"measurement": "VAS burning/stinging compared to placebo (FIG. 4C, FIG. 4D)", "setting": "DED and cataract, with or without cataract surgery", "value": "significant improvements"}, {"measurement": "VAS burning/stinging, subjects with cataract surgery compared to subjects without cataract surgery", "setting": "FIG. 4D versus FIG. 4C", "value": "more improvements"}, {"measurement": "VAS Burning/Stinging Change from Baseline, ANCOVA LS Mean Difference (SE), BRM421 OS − Placebo", "setting": "Visit 3 (Day 8)", "value": "−6.8 (2.31) mm"}, {"measurement": "VAS Burning/Stinging Change from Baseline, Two-Sample t-test Sample Mean Difference (SE), BRM421 OS − Placebo", "setting": "Visit 3 (Day 8)", "value": "−5.9 (2.58) mm"}, {"measurement": "VAS Eye Dryness Change from Baseline, ANCOVA LS Mean Difference (SE), BRM421 OS − Placebo", "setting": "Visit 3 (Day 8)", "value": "−5.3 (2.33) mm"}, {"measurement": "VAS Eye Dryness Change from Baseline, Two-Sample t-test Sample Mean Difference (SE), BRM421 OS − Placebo", "setting": "Visit 3 (Day 8)", "value": "−4.7 (2.53) mm"}, {"measurement": "VAS Photophobia Change from Baseline, ANCOVA LS Mean Difference (SE), BRM421 OS − Placebo", "setting": "Visit 3 (Day 8)", "value": "−4.5 (2.19) mm"}, {"measurement": "VAS Photophobia Change from Baseline, Two-Sample t-test Sample Mean Difference (SE), BRM421 OS − Placebo", "setting": "Visit 3 (Day 8)", "value": "−4.2 (2.33) mm"}, {"measurement": "VAS Burning/Stinging Change from Baseline, ANCOVA LS Mean (SE)", "setting": "Visit 3 (Day 8)", "value": "−9.8 (1.67) mm"}, {"measurement": "VAS Eye Dryness Change from Baseline, ANCOVA LS Mean (SE)", "setting": "Visit 3 (Day 8)", "value": "−9.4 (1.69) mm"}, {"measurement": "VAS Photophobia Change from Baseline, ANCOVA LS Mean (SE)", "setting": "Visit 3 (Day 8)", "value": "−6.2 (1.59) mm"}, {"measurement": "VAS Burning/Stinging Change from Baseline, Mean (SD)", "setting": "Visit 3 (Day 8)", "value": "−8.8 (20.35) mm"}, {"measurement": "VAS Eye Dryness Change from Baseline, Mean (SD)", "setting": "Visit 3 (Day 8)", "value": "−8.4 (19.22) mm"}, {"measurement": "VAS Photophobia Change from Baseline, Mean (SD)", "setting": "Visit 3 (Day 8)", "value": "−5.6 (15.49) mm"}, {"measurement": "Mean changes from baseline in burning/stinging, eye dryness and photophobia compared to placebo", "setting": "Visit 3, ITT Population, FIG. 2A", "value": "significant difference"}, {"measurement": "VAS burning/stinging relative to placebo (FIG. 2B)", "setting": "[1]", "value": "significant improvement"}, {"measurement": "VAS dryness relative to placebo (FIG. 2B)", "setting": "[1]", "value": "less significant improvement"}, {"measurement": "VAS dryness and VAS burning/stinging relative to placebo (FIG. 2B)", "setting": "Visit 3, pre-CAE evaluations as baselines", "value": "significant improvements"}, {"measurement": "VAS Burning/Stinging Change from Baseline, ANCOVA LS Mean Difference (SE), BRM421 OS − Placebo", "setting": "Visit 4 (Day 15)", "value": "−3.8 (2.58) mm"}, {"measurement": "VAS Burning/Stinging Change from Baseline, Two-Sample t-test Sample Mean Difference (SE), BRM421 OS − Placebo", "setting": "Visit 4 (Day 15)", "value": "−2.9 (2.85) mm"}, {"measurement": "VAS Eye Dryness Change from Baseline, ANCOVA LS Mean Difference (SE), BRM421 OS − Placebo", "setting": "Visit 4 (Day 15)", "value": "0.8 (2.66) mm"}, {"measurement": "VAS Eye Dryness Change from Baseline, Two-Sample t-test Sample Mean Difference (SE), BRM421 OS − Placebo", "setting": "Visit 4 (Day 15)", "value": "1.2 (2.80) mm"}, {"measurement": "VAS Photophobia Change from Baseline, ANCOVA LS Mean Difference (SE), BRM421 OS − Placebo", "setting": "Visit 4 (Day 15)", "value": "−3.5 (2.26) mm"}, {"measurement": "VAS Photophobia Change from Baseline, Two-Sample t-test Sample Mean Difference (SE), BRM421 OS − Placebo", "setting": "Visit 4 (Day 15)", "value": "−3.2 (2.40) mm"}, {"measurement": "VAS Burning/Stinging Change from Baseline, ANCOVA LS Mean (SE)", "setting": "Visit 4 (Day 15)", "value": "−10.0 (1.86) mm"}, {"measurement": "VAS Eye Dryness Change from Baseline, ANCOVA LS Mean (SE)", "setting": "Visit 4 (Day 15)", "value": "−9.2 (1.92) mm"}, {"measurement": "VAS Photophobia Change from Baseline, ANCOVA LS Mean (SE)", "setting": "Visit 4 (Day 15)", "value": "−7.8 (1.63) mm"}, {"measurement": "VAS Burning/Stinging Change from Baseline, Mean (SD)", "setting": "Visit 4 (Day 15)", "value": "−9.0 (21.26) mm"}, {"measurement": "VAS Eye Dryness Change from Baseline, Mean (SD)", "setting": "Visit 4 (Day 15)", "value": "−8.4 (21.48) mm"}, {"measurement": "VAS Photophobia Change from Baseline, Mean (SD)", "setting": "Visit 4 (Day 15)", "value": "−7.3 (16.50) mm"}, {"measurement": "VAS dryness, burning/stinging and photophobia versus baseline (FIG. 2A)", "setting": "Visits 3 and 4 relative to Visit 2 pre-CAE baseline", "value": "showed improvements over the baseline"}, {"measurement": "Onset of effects", "setting": "inferred from significant difference to placebo at Visit 3", "value": "relatively fast onset"}, {"measurement": "VAS burning/stinging (FIG. 4B)", "setting": "patients with both DED and cataract, pre-CAE and post-CAE evaluations", "value": "very significant improvements"}, {"measurement": "VAS burning/stinging (FIG. 4A)", "setting": "patients with only DED (without cataract), pre-CAE or post-CAE evaluations", "value": "no significant improvements"}, {"measurement": "VAS dryness (FIG. 4G, FIG. 4H)", "setting": "subjects with cataract regardless of the surgery status, pre-CAE and post-CAE evaluations", "value": "significant improvements"}]}]}
